Assay results as given in patent US11622991B2, “Protocol for treatment of lupus nephritis” (Aurinia Pharmaceuticals Inc., priority 2017, dated 2023).

Test system: lupus nephritis
Experiment: Predictability of week 48 partial remission from early reduction in UPCR (Tables 4-8)
Assay type: in vivo, human
Protocol: In the study reported in Example 1, the predictability of outcomes based on markers at early time points were determined.
This is important because it is undesirable to subject a patient to unnecessary treatment, even if the treatment is relatively safe.
PR is defined as at least 50% reduction in proteinuria (i.e. UPCR).
Sensitivity is defined as the probability that a subject showing PR at 48 weeks would have shown a favorable result with regard to the marker at the designated early time point. In the tables below, this is the ratio of the number of subjects with favorable marker results (early drop or normalization) to the total subjects with 48 week PR.
Specificity is defined as the probability that a subject not showing PR at 48 weeks would have shown an unfavorable result with regard to the marker at the designated early time point. In the tables below, this is the ratio of the number of subjects with unfavorable marker results (no early drop or no normalization) to the total subjects with no 48 week PR.
Positive predictive value is defined as the probability that a subject showing a favorable result with respect to the marker at an earlier time point would show PR at 48 weeks. In the tables below, this is the ratio of the number of subjects with favorable marker results who have 48 week PR to those with favorable marker results (early reduction or yes column).
Negative predictive value is defined as the probability that a subject showing an unfavorable result with respect to the marker at an earlier time point would not show PR at 48 weeks. In the tables below, this is the ratio of the number of subjects with unfavorable marker results who have no PR at 48 weeks to the total subjects with unfavorable marker results (no early reduction or no column).

[1] = 15% reduction in UPCR, Week 2, 23.7 mg BID
[2] = 15% reduction in UPCR, Week 2, 39.5 mg BID
[3] = 15% reduction in UPCR, Week 4, 23.7 mg BID
[4] = 15% reduction in UPCR, Week 6, 39.5 mg BID
[5] = 15% reduction in UPCR, Week 8, 39.5 mg BID
[6] = 15% reduction in UPCR, Week 12, 23.7 mg BID
[7] = 15% reduction in UPCR, Week 12, 39.5 mg BID
[8] = 15% reduction in UPCR, Week 16, 23.7 mg BID
[9] = 15% reduction in UPCR, Week 20, 23.7 mg BID
[10] = 15% reduction in UPCR, Week 20, 39.5 mg BID
[11] = 15% reduction in UPCR, Week 24, 23.7 mg BID
[12] = 15% reduction in UPCR, Week 26, 23.7 mg BID
[13] = 15% reduction in UPCR, Week 26, 39.5 mg BID
[14] = 15% reduction in UPCR, Week 36, 23.7 mg BID
[15] = 15% reduction in UPCR, Week 36, 39.5 mg BID
[16] = 15% reduction in UPCR, Week 48, 23.7 mg BID
[17] = 20% reduction in UPCR, Week 2, 23.7 mg BID
[18] = 20% reduction in UPCR, Week 2, 39.5 mg BID
[19] = 20% reduction in UPCR, Week 4, 23.7 mg BID
[20] = 20% reduction in UPCR, Week 6, 23.7 mg BID
[21] = 20% reduction in UPCR, Week 8, 23.7 mg BID
[22] = 20% reduction in UPCR, Week 8, 39.5 mg BID
[23] = 20% reduction in UPCR, Week 12, 23.7 mg BID
[24] = 20% reduction in UPCR, Week 12, 39.5 mg BID

C=C/C=C/C[C@@H](C)[C@@H](O)[C@H]1C(=O)N[C@@H](CC)C(=O)N(C)CC(=O)N(C)[C@@H](CC(C)C)C(=O)N[C@@H](C(C)C)C(=O)N(C)[C@@H](CC(C)C)C(=O)N[C@@H](C)C(=O)N[C@H](C)C(=O)N(C)[C@@H](CC(C)C)C(=O)N(C)[C@@H](CC(C)C)C(=O)N(C)[C@@H](C(C)C)C(=O)N1C [voclosporin]
Early Reduction No [1]: 30
No Week 48 Partial Remission Early Drop [1]: 10
Week 48 Partial Remission No Early Drop [1]: 16
Early Reduction No [2]: 30
No Week 48 Partial Remission No Early Drop [2]: 9
No Week 48 Partial Remission No Early Drop [3]: 11
Week 48 Partial Remission No Early Drop [3]: 9
No Week 48 Partial Remission No Early Drop [4]: 4
Week 48 Partial Remission No Early Drop [4]: 10
No Week 48 Partial Remission No Early Drop (15% reduction in UPCR, Week 8, 23.7 mg BID): 7
Early Reduction No [5]: 9
No Week 48 Partial Remission No Early Drop [5]: 4
No Week 48 Partial Remission No Early Drop [6]: 4
Week 48 Partial Remission No Early Drop [6]: 2
Early Reduction No [7]: 9
No Week 48 Partial Remission No Early Drop [7]: 4
Early Reduction No [8]: 8
Week 48 Partial Remission No Early Drop [8]: 3
Early Reduction No (15% reduction in UPCR, Week 16, 39.5 mg BID): 11
Early Reduction No [9]: 3
No Week 48 Partial Remission No Early Drop [9]: 3
Early Reduction No [10]: 9
Week 48 Partial Remission No Early Drop [10]: 4
Early Reduction No [11]: 2
No Week 48 Partial Remission No Early Drop [11]: 2
Early Reduction No (15% reduction in UPCR, Week 24, 39.5 mg BID): 10
Early Reduction No [12]: 3
No Week 48 Partial Remission Early Drop [12]: 9
No Week 48 Partial Remission No Early Drop [12]: 3
Early Reduction No [13]: 4
No Week 48 Partial Remission No Early Drop [13]: 4
Early Reduction No [14]: 4
No Week 48 Partial Remission Early Drop [14]: 10
No Week 48 Partial Remission No Early Drop [14]: 3
Week 48 Partial Remission No Early Drop [14]: 1
Early Reduction No [15]: 7
Week 48 Partial Remission No Early Drop [15]: 1
Early Reduction No [16]: 2
No Week 48 Partial Remission Early Drop [16]: 9
No Week 48 Partial Remission No Early Drop [16]: 2
No Week 48 Partial Remission Early Drop (15% reduction in UPCR, Week 48, 39.5 mg BID): 10
Early Reduction No [17]: 33
No Week 48 Partial Remission Early Drop [17]: 8
No Week 48 Partial Remission No Early Drop [17]: 16
Early Reduction No [18]: 34
No Week 48 Partial Remission No Early Drop [18]: 10
No Week 48 Partial Remission No Early Drop [19]: 11
Week 48 Partial Remission No Early Drop [19]: 10
No Week 48 Partial Remission Early Drop [20]: 11
No Week 48 Partial Remission No Early Drop [20]: 7
Week 48 Partial Remission No Early Drop (20% reduction in UPCR, Week 6, 39.5 mg BID): 10
No Week 48 Partial Remission Early Drop [21]: 11
No Week 48 Partial Remission No Early Drop [21]: 8
Early Reduction No [22]: 10
No Week 48 Partial Remission No Early Drop [22]: 4
Early Reduction No [23]: 7
Week 48 Partial Remission No Early Drop [23]: 2
Early Reduction No [24]: 9
No Week 48 Partial Remission No Early Drop [24]: 4
Early Reduction No (20% reduction in UPCR, Week 16, 23.7 mg BID): 9
